The target of one test is SRC (Homo sapiens, UniProt P12931). As to the kind of experiment: SRC Biochemical Assay Protocol (microfluidic mobility shift assay, FLPeptide4 substrate). In a few lines: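 Recombinant SRC (0.26 nM) preincubated 30 min at RT with compound (0.0017–100 μM) and 1.5 μM FLPeptide4, then 50 μM ATP added; 90 min reaction in HEPES pH 7.4, 10 mM MgCl2, 1% DMSO, EDTA-quenched. Phosphopeptide quantified by microfluidic mobility shift; IC50 from 4-parameter logistic fit.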

For test [1], the system named is phospho-S6RP (Ser 235/236) in RBE cells. As to the kind of experiment: Cellular Proliferation Protocol (cellular phospho-S6RP HTRF), RBE cells. The test is classed as cell-based. To be noted: 6 hours treatment, RBE or SNU-1079 cells, cell line not given. An outline of the steps: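 RBE cells, 2000/well, seeded 24 h before 6 h compound treatment at 37° C. Lysates were probed with a Eu-cryptate/d2 HTRF antibody sandwich for phospho-S6RP (Ser 235/236), incubated overnight at room temperature. Signal normalised to DMSO control and IC50 fitted to a 4-parameter curve.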
For orientation: Time-resolved FRET reads energy transfer from a long-lived donor to a nearby acceptor.

A further test relates to RBE cells. As to the kind of experiment: Cell Viability Protocol (CellTiterGlo), RBE cells. The test is classed as cell-based. The conditions noted are these: RBE or SNU-1079 cells, 72 or 120 hour, cell line and time not given. An outline of the steps: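 RBE cells plated at 1200/well in RPMI 1640 with 10% FBS, incubated 24 h, then dosed with compound from DMSO stocks and incubated 72 or 120 h at 37° C. CellTiterGlo luminescence normalised to DMSO control; IC50 from 4-parameter fit.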

As for `C=CC(=O)NCC(=O)N1CCC(C#Cc2c(-c3ccc(Oc4ccccc4)cc3)c3c(N)ncnc3n2C(C)C)CC1` [Example I-49], the IC50 (at SRC; in test [1] (6 h); with RBE cells) was not above 10 nM in each case.
Take `COc1cc(-c2c(C#C[C@@H]3[C@H]4CN(C(=O)/C=C/CN(C)C)C[C@@H]34)n(C)c3ncnc(N)c23)ccc1Oc1cccc(C)n1` [II-239, (E)-1-((1R,5S,6s)-6-((4-amino-5-(3-methoxy-4-((6-methylpyridin-2-yl)oxy)phenyl)-7-methyl-7H-pyrrolo[2,3-d]pyrimidin-6-yl)ethynyl)-3-azabicyclo[3.1.0]hexan-3-yl)-4-(dimethylamino) but-2-en-1-one]: the IC50 (at SRC; in test [1] (6 h); in the test with RBE cells) was 10 to 1000 nM throughout.
For the compound `C=CC(=O)N1CC[C@H](N2CC(C#Cc3c(-c4ccc(Oc5cccc(C)n5)c(OC)c4)c4c(N)ncnc4n3C)C2)[C@H](F)C1` [II-309], the IC50 (on SRC; in test [1] (6 h); with RBE cells) was 10 to 1000 nM each time.
On to `C=CC(=O)N1CCC(N2CC(C#Cc3c(-c4ccccc4OC)c4c(N)ncnc4n3C)C2)CC1` [II-268], for which the IC50 (in general, the concentration that gives 50% inhibition) at SRC lay within 10 to 1000 nM; in test [1] (6 h), 1000 to 10000 nM; with RBE cells, 1000 to 10000 nM.
For the compound `C=CC(=O)N1CC[C@@H](N2CC(C#Cc3c(-c4ccc(Cl)c(F)c4)c4c(N)ncnc4n3C)C2)[C@@H](O)C1` [II-66], the IC50 (at SRC; in test [1]; in the test with RBE cells) was 10 to 1000 nM in each case.
As to `Cc1cccc(Oc2ccc(-c3c(C#C[C@@H]4[C@H]5CN(C(=O)/C=C/CN(C)C)C[C@@H]45)n(C4CCOC4)c4ncnc(N)c34)cc2)n1` (mixture of isomers) [II-28], the IC50 (on SRC; in test [1]; in the test on RBE cells) was 10 to 1000 nM throughout.
In the case of `C=CC(=O)N1C[C@@H]2[C@@H](C#Cc3c(-c4ccc(Oc5cccc(C)n5)c(OC)c4)c4c(N)ncnc4n3C)[C@@H]2C1` [II-218, 1-((1R,5S,6s)-6-((4-amino-5-(3-methoxy-4-((6-methylpyridin-2-yl)oxy)phenyl)-7-methyl-7H-pyrrolo[2,3-d]pyrimidin-6-yl)ethynyl)-3-azabicyclo[3.1.0]hexan-3-yl)prop-2-en-1-one], the IC50 (at SRC; in test [1] (6 h); in the test on RBE cells) was 10 to 1000 nM each time.
Regarding `C=CC(=O)N1CC[C@@H](N2CC(C#Cc3c(-c4ccc(C5CC5)c(OC)c4)c4c(N)ncnc4n3C)C2)[C@@H](O)C1` [II-67], the IC50 (on SRC; in test [1]; in the test with RBE cells) was 10 to 1000 nM in each case.
With `C=CC(=O)N1CCC(N2CC(C#Cc3c(-c4cccc5c4OCO5)c4c(N)ncnc4n3CC)C2)CC1` [II-119], the values for the IC50 (at SRC; in test [1]; with RBE cells) were not above 10 nM, 10 to 1000 nM and 10 to 1000 nM, respectively.
`C=CC(=O)N1CCC(C#Cc2c(-c3ccc(Oc4ccccc4)cc3)c3c(N)ncnc3n2C2CCN(C)C2=O)CC1` (stereo not drawn) [Example I-56]: the IC50 (at SRC; in test [1] (6 h); in the test on RBE cells) was 10 to 1000 nM in each case.
Take `C=CC(=O)N1CC[C@@H](N2CC(C#Cc3c(-c4ccc(Cl)cn4)c4c(N)ncnc4n3C)C2)[C@@H](O)C1` [II-321]: the IC50 (at SRC; in test [1]; with RBE cells) was 10 to 1000 nM in each case.
With `C=CC(=O)N1C[C@@H]2[C@@H](C#Cc3c(-c4ccc(Oc5ccccc5)cc4OC)c4c(N)ncnc4n3C)[C@@H]2C1` [II-41], the IC50 (on SRC; in test [1]; with RBE cells) was not above 10 nM each time.
Take `C=CC(=O)N1CC[C@H](N2CC(C#Cc3c(-c4ccc(Oc5ccccc5)cc4)c4c(N)ncnc4n3C)C2)[C@H](O)C1` [II-164, 1-((3R,4S)-4-(3-((4-amino-7-methyl-5-(4-phenoxyphenyl)-7H-pyrrolo[2,3-d]pyrimidin-6-yl)ethynyl)azetidin-1-yl)-3-hydroxypiperidin-1-yl)prop-2-en-1-one]: the IC50 on SRC is 10 to 1000 nM; in test [1] (6 h), not above 10 nM; with RBE cells, not above 10 nM.
`COc1cc(Oc2ccccn2)ccc1-c1c(C#C[C@@H]2[C@H]3CN(C(=O)/C=C/CN(C)C)C[C@@H]23)n(C)c2ncnc(N)c12` [II-227, (E)-1-((1R,5S,6s)-6-((4-amino-5-(2-methoxy-4-(pyridin-2-yloxy)phenyl)-7-methyl-7H-pyrrolo[2,3-d]pyrimidin-6-yl)ethynyl)-3-azabicyclo[3.1.0]hexan-3-yl)-4-(dimethylamino) but-2-en-1-one]: the IC50 (on SRC; in test [1] (6 h); in the test with RBE cells) was 10 to 1000 nM each time.
For the compound `C=CC(=O)N1CC[C@@H](N2CC(C#Cc3c(-c4ccc5c(c4)OCCN5C)c4c(N)ncnc4n3C)C2)[C@@H](O)C1` [II-75], the IC50 (on SRC; in test [1]; in the test on RBE cells) was 1000 to 10000 nM each time.
As for `C=CC(=O)N[C@@H](CO)C(=O)N1C[C@@H]2[C@@H](C#Cc3c(-c4ccc(Oc5ccccc5)cc4)c4c(N)ncnc4n3C)[C@@H]2C1` [II-210, N-[(2S)-1-[(1R,5S,6S)-6-[2-[4-amino-7-methyl-5-(4-phenoxyphenyl)-7H-pyrrolo[2,3-d]pyrimidin-6-yl]ethynyl]-3-azabicyclo[3.1.0]hexan-3-yl]-3-hydroxy-1-oxopropan-2-yl]prop-2-enamide], the IC50 (at SRC; in test [1] (6 h); with RBE cells) was not above 10 nM throughout.
For `COc1cc(Oc2cccc(C)n2)ccc1-c1c(C#C[C@@H]2[C@H]3CN(C(=O)/C=C/CN(C)C)C[C@@H]23)n(C)c2ncnc(N)c12` [II-226, (E)-1-((1R,5S,6s)-6-((4-amino-5-(2-methoxy-4-((6-methylpyridin-2-yl)oxy)phenyl)-7-methyl-7H-pyrrolo[2,3-d]pyrimidin-6-yl)ethynyl)-3-azabicyclo[3.1.0]hexan-3-yl)-4-(dimethylamino) but-2-en-1-one], the IC50 (at SRC; in test [1] (6 h); with RBE cells) was 10 to 1000 nM in each case.
Turning to `C=CC(=O)N1CCC(N2CC(C#Cc3c(-c4ccc(C5CC5)cc4)c4c(N)ncnc4n3C)C2)CC1` [II-99], the IC50 (on SRC; in test [1]; in the test with RBE cells) was 10 to 1000 nM each time.
Regarding `C=CC(=O)N1CCC(N2CC(F)(C#Cc3c(-c4ccc(Oc5cccc(C)n5)c(OC)c4)c4c(N)ncnc4n3C)C2)CC1` [II-243], the IC50 (on SRC; in test [1] (6 h); with RBE cells) was 10 to 1000 nM throughout.
As to “1-((3R,4S)-4-(3- ((4-amino-5-(4-(3- fluorophenoxy) phenyl)-7-methyl-7H- pyrrolo[2,3- d]pyrimidin-6- yl)ethynyl)azetidin- 1-yl)-3- hydroxypiperidin- 1-yl)prop-2-en-1- one [II-249]”, the IC50 at SRC was 10 to 1000 nM; in test [1] it was not above 10 nM; in the test with RBE cells it was not above 10 nM.
`C=CC(=O)N1CCC(N2CC(C#Cc3c(-c4ccc(Oc5ccccc5)cc4OC)c4cncnc4n3C)C2)CC1` [II-30]: the IC50 at SRC is 1000 to 10000 nM; in test [1] (6 h), 10 to 1000 nM; in the test on RBE cells, 10 to 1000 nM.
